Measured values as given in patent US9458465B2, “Compositions and methods to modulate cell membrane resealing” (RUTGERS, THE STATE UNIVERSITY OF NEW JERSEY, priority 2007, dated 2016).
Numbering of substitutions follows the chain as printed. Names and notes keep the numbering of the source.

What was measured:
[1] = test system: C2C12 cells expressing GFP-MG53; test: Repair of acute membrane damage: translocation to microelectrode injury site; assay type: cell-based, murine; details: for Membrane Repair (+Zn-HPT): 2 μM Zn-HPT; for Membrane Repair (−Zn-HPT): extracellular solution with nominal free zinc
Description: To follow the process of intracellular vesicle translocation associated with repair of acute membrane damage, GFP-MG53 fusion protein was expressed in C2C12 myoblast cells (FIG. 21a). […]
Cell culture—The C2C12 murine myoblast cell line used for all studies was purchased from the American Type Culture Collection (Manassas, Va.). Cells were grown in a humidified environment at 37° C. and 5% CO2 in DMEM medium for C2C12 or Ham's F12 medium for CHO cells supplemented with 10% fetal bovine serum, 100 units/ml penicillin and 100 ug/ml streptomycin. In order to induce myotube differentiation, C2C12 myoblasts were grown to confluence and the medium was switched to DMEM containing 2% horse serum, penicillin (100 U/ml), streptomycin (100 μg/ml). For transient transfections, C2C12 myoblasts or CHO cells were plated at 70% confluence in glass-bottom dishes. After 24 hours, cells were transfected with plasmids described above using GeneJammer reagent (Stratagene). Cells were visualized by live cell confocal imaging at 24-48 hours after transfection or at times indicated for individual experiments. In some experiments, C2C12 myoblasts were allowed to differentiate into myotubes for the indicated time before observation.
Live cell imaging—To monitor intracellular trafficking of GFP-MG53 either CHO or C2C12 cells were cultured in glass-bottom dishes (Bioptechs Inc.) and transfected with the plasmids described above. Fluorescence images (512×512) were captured at 3.18 s/frame using a BioRad 2100 Radiance laser scanning confocal microscope with a 63×1.3NA oil immersion objective.

[2] = test system: FDB muscle fibers from wild type (WT) mice; test: FM1-43 dye entry after UV-laser damage, wild type FDB muscle fibers; assay type: cell-based
Description: (§1) FIG. 20. Protective effect of zinc on membrane repair is lost in mg53−/− skeletal muscle. (a) individual flexor digitorum brevis (FDB) muscle fibers were isolated from wild type (WT) mice (3-6 months). A strong UV laser was applied to the FDB fiber that caused local damage to the muscle (arrow). Entry of FM1-43 fluorescent dye (2.5 μM) was used as an indicator for the measurement of membrane repair capacity. The images were taken 200 s following UV irradiation (control). […] (d) Schematic diagram of zinc-binding motifs in MG53. The amino-terminus of MG53 contains two putative zinc-binding motifs: one located at the RING motif (a.a. 1-56, human cDNA), and the other located at the B-box motif (a.a. 86-117, human cDNA). The specific amino acids that participate in zinc-binding are indicated.
as §1, with “Protective” for “FIG. 20. Protective”, “To access membrane repair capacity,” for “(a)”, “months) (FIG. 20a).” for “months).”, “Summary data for panel a and b (FIG. 20c). […]” for “(d)”, “indicated (FIG. 20d).” for “indicated.”

[3] = test system: FDB muscle fibers from mg53−/− mice; test: FM1-43 dye entry after UV-laser damage, mg53−/− FDB muscle fibers; assay type: cell-based
Description: as §1
as §1, with “Protective” for “FIG. 20. Protective”, “To access membrane repair capacity,” for “(a)”, “months) (FIG. 20a).” for “months).”, “Summary data for panel a and b (FIG. 20c). […]” for “(d)”, “indicated (FIG. 20d).” for “indicated.”

HEK293 cells = test: LDH release after glass microbead damage, HEK293; assay type: cell-based, human
Description: Recombinant MG53 can protect kidney cells from mechanical cell membrane damage. HEK293 cells (8×10^4) were treated with glass microbeads to induce mechanical damage (FIG. 37). Different does of recombinant human MG53 or vehicle control was applied to the samples when glass beads were added to the media. Cells were rotated on an orbital shaker and then the supernatant was analyzed for LDH levels.
Externally applied recombinant MG53 requires phosphatidylserine (PS) binding to reseal damaged membranes. HEK293 cells were treated with recombinant human MG53 or vehicle and them damaged by shaking in the presence of glass microbeads (black bars) (FIG. 40). Membrane damage is measured by LDH release from cells that is recorded by colormetric assay recorded at 488 nm. […] Thus, MG53 must be able to bind exposed PS on damaged cells in order to facilitate membrane repair. * p<0.05
HEK293 cells were treated with recombinant human MG53 or vehicle and them damaged by shaking in the presence of glass microbeads (black bars) (FIG. 41). Membrane damage is measured by LDH release from cells that is recorded by colormetric assay recorded at 488 nm. […] Thus, MG53 must be able to bind exposed PS on damaged cells in order to facilitate membrane repair. * p<0.05

mg53−/− myotubes = test: Membrane repair in transfected mg53−/− myotubes; assay type: cell-based, mice; details: transfected mg53−/− myotubes; UV injury
From the text: The entry of FM4-64, a red-shifted variant of FM1-43, was used as an index of membrane repair capacity in mg53−/− myotubes transfected with GFP-MG53 and GFP-C242A. Following UV-bleaching of the green fluorescence, rapid translocation of GFP-MG53 took place at the injury site, whereas GFP-C242A remained static due to its defective oligomerization properties (FIG. 16E, 17A).
Similar defects with GFP-C29L were also observed in C2C12 myotubes (FIG. 18e, middle).

[4] = C2C12 cells, listed as GFP-C29L/C105S
[5] = C2C12 cells, listed as GFP-C105S

Molecule: O[C@H](CS)[C@H](O)CS (racemic) [DTT, dithiothreitol, reference compound]
- translocation of GFP-MG53 toward the injury site ([1]; reduced extracellular environment (+DTT), 5 mM DTT): largely disrupted
- membrane resealing (entry of FM-143 dye) ([2]; isolated muscle fibers, DTT in the extracellular solution): prevents membrane resealing

Molecule: O=C([O-])CN(CCN(CC(=O)[O-])CC(=O)[O-])CC(=O)[O-].[Ca+2].[Na+].[Na+] [Ca-EDTA]
- membrane repair capacity (FM1-43 dye entry) ([2]; WT muscle, Ca-EDTA 100 μM): compromised membrane repair capacity
- membrane repair capacity ([3]; mg53−/− muscle, Ca-EDTA): did not produce any significant changes in membrane repair capacity

Molecule: c1ccc(CN(CCN(Cc2ccccn2)Cc2ccccn2)Cc2ccccn2)nc1 [TPEN, N,N,N,N-tetrakis(2-pyridyl-methyl)ethylenediamine]
- translocation of GFP-MG53 containing vesicles toward the mechanical injury site ([1]; 20 μM TPEN in the extracellular solution): completely abolished the translocation
- membrane repair capacity (FM1-43 dye entry) ([2]; WT fibers, 40 μM TPEN): compromised membrane repair capacity
- membrane repair capacity (FM1-43 dye entry) ([3]; mg53−/− fibers, +TPEN): did not produce more entry of FM1-43 dye

Molecule: Thimerosal [reference compound]
- translocation of GFP-MG53 to injury sites ([1]; oxidizing agent Thimerosal in the extracellular solution): increased translocation

Molecule: phosphatidylserine [phosphatidylserine (PS), reference compound]
- effect on MG53 resealing of plasma membrane (HEK293 cells; simultaneous treatment with recombinant human MG53): can prevent resealing of plasma membrane

B1: Annexin V: a phosphatidylserine (PS) binding protein (protein, UniProt P08758 2-320, looked up)
Annexin A5: AQVLRGTVTDFPGFDERADAETLRKAMKGLGTDEESILTLLTSRSNAQRQEISAAFKTLFGRDLLDDLKSELTGKFEKLIVALMKPSRLYDAYELKHALKGAGTNEKVLTEIIASRTPEELRAIKQVYEEEYGSSLEDDVVGDTSGYYQRMLVVLLQANRDPDAGIDEAQVEQDAQALFQAGELKWGTDEEKFITIFGTRSVSHLRKVFDKYMTISGFQIEETIDRETSGNLEQLLLAVVKSIRSIPAYLAETLYYAMKGAGTDDHTLIRVMVSRSEIDLFNIRKEFRKNFATSLYSMIKGDTSGDYKKALLLLCGEDD
- effect on MG53 resealing of plasma membrane (HEK293 cells; excess (5:1), simultaneous with recombinant human MG53): can prevent resealing of plasma membrane

B2: C242A: MG53 mutant, conserved cysteine 242 mutated into alanine (protein)
chain: MSAAPGLLRQELSCPLCLQLFDAPVTAECGHSFCRACLIRVAGEPAADGTVACPCCQAPTRPQALSTNLQLSRLVEGLAQVPQGHCEEHLDPLSIYCEQDRTLVCGVCASLGSHRGHRLLPAAEAQARLKTQLPQQKMQLQEACMRKEKTVAVLEHQLVEVEETVRQFRGAVGEQLGKMRMFLAALESSLDREAERVRGDAGVALRRELSSLNSYLEQLRQMEKVLEEVADKPQTEFLMKFALVTSRLQKILSESPPPARLDIQLPVISDDFKFQVWKKMFRALMPALEELTFDPSSAHPSLVVSSSGRRVECSDQKAPPAGEDTRQFDKAVAVVAQQLLSQGEHYWEVEVGDKPRWALGVMAADASRRGRLHAVPSQGLWLLGLRDGKILEAHVEAKEPRALRTPERPPARIGLYLSFADGVLAFYDASNPDVLTPIFSFHERLPGPVYPIFDVCWHDKGKNAQPLLLVGPEQEQA
modifications: left off: large carriers
notes: MG53 mutant, conserved cysteine 242 mutated into alanine
- translocation to injury site and membrane repair function of GFP fusion protein ([1]; C2C12 cells, acute membrane damage): completely disrupted its ability to facilitate the membrane repair process
- sarcolemmal membrane repair function ([2]; overexpression in adult wt muscle fibers, compared with GFP-MG53): inhibited sarcolemmal membrane repair function
- entry of FM4-64 (membrane repair capacity) (mg53−/− myotubes): not able to restore membrane integrity following injury

B3: C29L/C105S: MG53 double mutant of RING motif (C29L) and B-box motif (C105S) (protein)
chain: B2 chain with C29L, C105S, A242C
modifications: left off: large carriers
- Membrane Repair (+Zn-HPT) [1, 4]: completely defective in repair of acute membrane damage
- Membrane Repair (−Zn-HPT) [1, 4]: completely defective in repair of acute membrane damage

B4: C105S: MG53 single mutation of the B-box motif (protein)
chain: B2 chain with C105S, A242C
modifications: left off: large carriers
notes: MG53 single mutation of the B-box motif
- Membrane Repair (+Zn-HPT) [1, 5]: partial rescue of the membrane repair capacity
- Membrane Repair (−Zn-HPT) [1, 5]: could not move to the acute injury site
